From US20250214977A1, “STAT6 INHIBITORS AND USES THEREOF” (Kymera Therapeutics, Inc., priority 2024, published 2025)
Where “and” joins values, the source holds several entries; their conditions need not be identical. Equal entries are not always repeated.

System: Phosphorylation of STAT6 in human A549 cells
Assay: Phosphorylated STAT6 (pSTAT6) flow cytometry assay in human A549 cells
Type: cell-based
Settings: read-out: STAT6 IL4 pSTAT6 assay in A549 cells: Average IC50
Text: Example 3. Phosphorylated STAT6 (pSTAT6) Flow Cytometry Assay in Human A549 Cells
Phosphorylation of STAT6 in human A549 cells was quantitatively measured using flow cytometry technology.

| SMILES | IC50 |
| --- | --- |
| CCc1cc(C(F)F)ncc1-c1cc(C2=CCCN(C(=O)CCn3ccnn3)C2)c(F)c2[nH]c(C(=O)N3Cc4cnn(CC)c4C3)cc12 [Example I-767] | > 100000 nM |
| CCn1ncc2c1CN(C(=O)c1cc(C3CC3)c3c(c1)cc(C1=CCCN(C(=O)CCn4ccnn4)C1)n3CC1CC1)C2 [Example I-768] | > 100000 nM |
| COc1ccccc1-c1cc(C2=CCCN(C(=O)CCn3ccnn3)C2)c(F)c2[nH]c(C(=O)N3CCN(c4ccc(F)c(F)c4F)CC3)cc12 [Example I-769] | < 100 nM |
| COc1ccccc1-c1cc(C2=CCCN(C(=O)CCn3ccnn3)C2)c(F)c2[nH]c(C(=O)N3CCN(c4ccc5c(c4)c4ccccc4n5C)CC3)cc12 [Example I-770] | 1000 to 10000 nM |
| COc1ccccc1-c1cc(C2=CCCN(C(=O)CCn3ccnn3)C2)c(F)c2[nH]c(C(=O)N3CCN(c4cc(C#N)cc5[nH]ccc45)CC3)cc12 [Example I-771] | < 100 nM |
| COc1ccccc1-c1cc(C2=CCCN(C(=O)CCn3ccnn3)C2)c(F)c2[nH]c(C(=O)NC(C#N)c3ccccc3)cc12 (stereo not drawn) [Example I-772] | > 100000 nM |
| COc1ccccc1-c1cc(C2=CCCN(C(=O)CCn3ccnn3)C2)c(F)c2[nH]c(C(=O)N3CCN(C(C)(C)C)CC3)cc12 [Example I-773] | < 100 nM |
| COc1ccccc1-c1cc(C2=CCCN(C(=O)CCn3ccnn3)C2)c(F)c2[nH]c(C(=O)N3CCN(c4cccnc4)CC3)cc12 [Example I-774] | < 100 nM |
| COc1ccccc1-c1cc(C2=CCCN(C(=O)CCn3ccnn3)C2)c(F)c2[nH]c(C(=O)N3CCN(c4c(C)nn(C)c4C#N)CC3)cc12 [Example I-775] | < 100 nM |
| COc1ccccc1-c1cc(C2=CCCN(C(=O)CCn3ccnn3)C2)c(F)c2[nH]c(C(=O)N3CCN(c4ccsc4C#N)CC3)cc12 [Example I-776] | < 100 nM |
| COc1ccccc1-c1cc(C2=CCCN(C(=O)CCn3ccnn3)C2)c(F)c2[nH]c(C(=O)N3CCN(c4scnc4C)CC3)cc12 [Example I-777] | < 100 nM |
| COc1ccccc1-c1cc(C2=CCCN(C(=O)CCn3ccnn3)C2)c(F)c2[nH]c(C(=O)N3CCN(c4nnn(C)c4C)CC3)cc12 [Example I-778] | < 100 nM |
| COc1ccccc1-c1cc(C2=CCCN(C(=O)CCn3ccnn3)C2)c(F)c2[nH]c(C(=O)N3CCN(c4cc(=O)[nH]cc4F)CC3)cc12 [Example I-779] | < 100 nM |
| COc1cc(F)cnc1N1CCN(C(=O)c2cc3c(C4CCCCN4C)cc(C4=CCCN(C(=O)CCn5ccnn5)C4)c(F)c3[nH]2)CC1 (stereo not drawn) [Example I-780] | < 100 nM |
| CCC1CN(C)CCC1c1cc(C2=CCCN(C(=O)CCn3ccnn3)C2)c(F)c2[nH]c(C(=O)N3CCN(c4ncc(F)cc4OC)CC3)cc12 (stereo not drawn) [Example I-781] | < 100 nM |
| CCC1=C(c2cc(C3=CCCN(C(=O)CCn4ccnn4)C3)c(F)c3[nH]c(C(=O)N4CCN(c5ncc(F)cc5OC)CC4)cc23)CN(C)C1 [Example I-782] | < 100 nM |
| CCN1CCCCC1c1cc(C2=CCCN(C(=O)CCn3ccnn3)C2)c(F)c2[nH]c(C(=O)N3CCN(c4ncc(F)cc4OC)CC3)cc12 (stereo not drawn) [Example I-784] | < 100 nM |
| COc1cc(F)cnc1N1CCN(C(=O)c2cc3c(C4CN(C)C4)cc(C4=CCCN(C(=O)CCn5ccnn5)C4)c(F)c3[nH]2)CC1 [Example I-785] | < 100 nM |
| CCc1ccncc1-c1cc(C2=CCCN(C(=O)CC(=O)O)C2)c(F)c2[nH]c(C(=O)N3CCN(c4ncc(F)cc4OC)CC3)cc12 [Example I-786] | < 100 nM |
| CCc1ccncc1-c1cc(C2=CCCN(C(=O)CC(=O)O)C2)c(F)c2[nH]c(C(=O)N3Cc4cnn(CC)c4C3)cc12 [Example I-787] | < 100 nM |
| CCc1cc(C)ncc1-c1cc(C2=CCCN(C(=O)CC(=O)O)C2)c(F)c2[nH]c(C(=O)N3Cc4cnn(CC)c4C3)cc12 [Example I-788] | < 100 nM |
| CCc1ccncc1-c1cc(C2=CCCN(C(=O)C(=O)O)C2)c(F)c2[nH]c(C(=O)N3CCN(c4ncc(F)cc4OC)CC3)cc12 [Example I-790] | < 100 nM |
| COc1ncccc1-c1cc(C(=O)N2Cc3cnn(C)c3C2)cc2cc(C3=CCCN(C(=O)CC(=O)O)C3)n(CC3CC3)c12 [Example I-791] | < 100 nM |
| CCc1nc(C)ccc1-c1cc(C(=O)N2CCN(c3nc(C)c(F)cc3OC)CC2)cc2cc(C3=CCCN(C(=O)CC(=O)O)C3)n(CC3CC3)c12 [Example I-792] | < 100 nM |
| CCc1ccc(-c2cc(C(=O)N3CCN(c4ncc(F)cc4OC)CC3)cc3cc(C4=CCCN(C(C)=O)C4)n(CC4CC4)c23)c(C)n1 [Example I-793] | < 100 nM |
| CCc1nc(C)ccc1-c1cc(C(=O)N2CCN(c3ncc(F)cc3OC)CC2)cc2cc(C3=CCCN(C(=O)CC(=O)O)C3)n(CC)c12 [Example I-794] | < 100 nM |
| COC(=O)CC(=O)N1CCC=C(c2cc3cc(C(=O)N4Cc5cnn(C)c5C4)cc(-c4cccnc4OC)c3n2CC2CC2)C1 [Example I-795] | > 100000 nM |

| SMILES | IC50 |
| --- | --- |
| CCc1cnccc1-c1cc(C(=O)N2CCN(c3ncc(F)cc3OC)CC2)cc2cc(C3=CCCN(C(=O)C(=O)O)C3)n(CC3CC3)c12 [Example I-796] | > 100000 nM |
| CCc1ncccc1-c1cc(C(=O)N2CCN(c3ncc(F)cc3OC)CC2)cc2cc(C3=CCCN(C(=O)C(=O)O)C3)n(CC3CC3)c12 [Example I-797] | > 100000 nM |
| CCc1ccc(-c2cc(C(=O)N3Cc4cnn(CC)c4C3)cc3cc(C4=CCCN(C(=O)C(=O)O)C4)n(CC4CC4)c23)c(C)n1 [Example I-798] | > 100000 nM |
| CCOC(=O)C(=O)N1CCC=C(c2cc3cc(C(=O)N4Cc5cnn(CC)c5C4)cc(-c4ccc(CC)nc4C)c3n2CC2CC2)C1 [Example I-799] | > 100000 nM |
| CCc1nc(C)ccc1-c1cc(C(=O)N2CCN(c3ncc(F)cc3OC)CC2)cc2cc(C3=CCCN(C(=O)CC(=O)O)C3)n(CC(C)C)c12 [Example I-800] | > 100000 nM |
| CCc1ccc(-c2cc(C(=O)N3Cc4cnn(CC)c4C3)cc3cc(C4=CCCN(C(=O)CC(=O)O)C4)n(CC(C)C)c23)c(C)n1 [Example I-801] | > 100000 nM |
| COC(=O)CCC#Cc1cccc2c1CC(C(=O)N1CCC=C(c3ccc4oc(C(=O)N(C)C)cc4c3)C1)N(C=O)C2 (stereo not drawn) [Example I-802, Methyl 5-(3-(5-(2-(dimethylcarbamoyl)benzofuran-5-yl)-1,2,3,6-tetrahydropyridine-1-carbonyl)-2-formyl-1,2,3,4-tetrahydroisoquinolin-5-yl)pent-4-ynoate] | 100 to 1000 nM |
| COc1ccccc1-c1cc(C2=CCCN(C(=O)C3Cc4ccccc4CN3C=O)C2)cc2cc(C(=O)N(C)C)oc12 (stereo not drawn) [Example I-803, 5-(1-(2-formyl-1,2,3,4-tetrahydroisoquinoline-3-carbonyl)-1,2,5,6-tetrahydropyridin-3-yl)-7-(2-methoxyphenyl)-N,N-dimethylbenzofuran-2-carboxamide] | 10000 to 100000 nM |
| COc1cc(F)cnc1N1CCN(C(=O)c2cc3c(Br)cc(C4=CCCN(C(=O)CCn5ccnn5)C4)c(F)c3[nH]2)CC1 [Example I-806, 1-(5-(4-bromo-7-fluoro-2-(4-(5-fluoro-3-methoxypyridin-2-yl)piperazine-1-carbonyl)-1H-indol-6-yl)-3,6-dihydropyridin-1(2H)-yl)-3-(1H-1,2,3-triazol-1-yl)propan-1-one] | 10000 to 100000 nM and 100 to 1000 nM |
| COc1cccnc1N1CCN(C(=O)c2cc3c(-n4ccccc4=O)cc(C4=CCCN(C(=O)CCn5ccnn5)C4)c(F)c3[nH]2)CC1 [Example I-807, 1-(6-(1-(3-(1H-1,2,3-triazol-1-yl)propanoyl)-1,2,5,6-tetrahydropyridin-3-yl)-7-fluoro-2-(4-(3-methoxypyridin-2-yl)piperazine-1-carbonyl)-1H-indol-4-yl)pyridin-2(1H)-one] | < 100 nM |
| CCc1cc(C)ncc1-c1cc(C2=CCCN(C(=O)C(C)C(=O)O)C2)c(F)c2[nH]c(C(=O)N3CCN(c4ncc(F)cc4OC)CC3)cc12 (stereo not drawn) [Example I-808, 3-(3-(4-(4-ethyl-6-methylpyridin-3-yl)-7-fluoro-2-(4-(5-fluoro-3-methoxypyridin-2-yl)piperazine-1-carbonyl)-1H-indol-6-yl)-5,6-dihydropyridin-1(2H)-yl)-2-methyl-3-oxopropanoic acid] | 100 to 1000 nM and < 100 nM |
| CN(C)C(=O)c1cc2cc(C3=CCCN(C(=O)CCc4nccs4)C3)ccc2o1 [Example I-815] | 100 to 1000 nM |
| CN(C)C(=O)c1cc2ccc(C3=CCCN(C(=O)CCn4ccnn4)C3)cc2s1 [Example I-816] | 100 to 1000 nM |
| CCCN(C)C(=O)c1cc2cc(C3=CCCN(C(=O)CCn4ccnn4)C3)ccc2o1 [Example I-817] | 100 to 1000 nM |
| CN(C)C(=O)c1cc2cc(C3=CCCN(C(=O)CCn4ccnn4)C3)cnc2[nH]1 [Example I-819] | 100 to 1000 nM |
| CN(C)C(=O)c1cc2cc(C3=CCCN(C(=O)CCc4cccnn4)C3)ccc2o1 [Example I-820] | 100 to 1000 nM |
| CN(C)C(=O)c1cc2ccc(C3=CCCN(C(=O)CCc4nccs4)C3)cc2[nH]1 [Example I-821] | 100 to 1000 nM |
| CN(C)C(=O)c1cc2ccc(C3=CCCN(C(=O)C4Cc5ccccc5CN4C=O)C3)cc2[nH]1 (stereo not drawn) [Example I-822] | 100 to 1000 nM |
| COC(=O)CCC#Cc1cc(C2=CCCN(C(=O)C3Cc4ccccc4CN3C=O)C2)cc2cc(C(=O)N(C)C)oc12 (stereo not drawn) [Example I-823] | < 100 nM |
| CN(C)C(=O)c1cc2cc(C3=CCCN(C(=O)CCc4nncs4)C3)ccc2o1 [Example I-824] | 100 to 1000 nM |
| CC(C(=O)N1CCC=C(c2ccc3cc(C(=O)N(C)C)[nH]c3c2)C1)n1ccccc1=O (stereo not drawn) [Example I-825] | 100 to 1000 nM |
| CN(C)C(=O)c1cc2ccc(C3=CCCN(C(=O)CCn4cccn4)C3)cc2[nH]1 [Example I-826] | 100 to 1000 nM |
| Cc1cnnn1CCC(=O)N1CCC=C(c2ccc3cc(C(=O)N(C)C)[nH]c3c2)C1 [Example I-827] | 100 to 1000 nM |
| CN(C)C(=O)c1cc2ccc(C3=CCCN(C(=O)CCc4nncs4)C3)cc2[nH]1 [Example I-828] | 100 to 1000 nM |
| CN(C)C(=O)c1cc2ccc(C3=CCCN(C(=O)CCc4ccno4)C3)cc2[nH]1 [Example I-829] | 100 to 1000 nM |
| CN(C)C(=O)c1cc2cc([C@H]3CCCN(C(=O)CCn4ccnn4)C3)ccc2o1 [Example I-830] | 100 to 1000 nM |
| CN(C)C(=O)c1cc2ccc(C3=CCCN(C(=O)CCc4ccon4)C3)cc2[nH]1 [Example I-831] | 100 to 1000 nM |
